Assay results published in patent publication US20020086832A1, “Caspase inhibitors for inhibiting blood cell proliferation and for treating autoimmune diseases” (APOTECH RESEARCH AND DEVELOPMENT LTD., priority 1999, published 2002).
Entries after “also recorded” stand apart in the source; their conditions may differ.

What was measured:
Format in all cases: cell-based
caspase-8 = target: T1, caspase-8 (Homo sapiens, UniProt Q14790); assay: Western blot of procaspase-8 cleavage in lysates of stimulated human T-lymphocytes; settings: anti-CD3 antibody and crosslinked sFasL, 6 hours, IETD-fmk 50 μM; FIG. 6
T1 construct: procaspase-8, 55 kDa fraction, or proteolytically cleaved, active caspase-8, 26 kDa fraction, respectively; endogenous in cells; host or cells: human T-lymphocytes stimulated with anti-CD3 antibody and crosslinked sFasL
Method: FIG. 6 provides a Western blot. Human T-cells were cultivated either without stimulation (control), with soluble anti-CD3 antibody alone (3 μg/ml), or with anti-CD3 antibody and sFasL (50 ng/ml) which, as described above, is crosslinked via its FLAG sequence. The cell lysates were examined in accordance with the times shown in FIG. 6, with regard to the expression of procaspase-8 or of cleavage products of the procaspase-8.
In a further experimental approach, T-cells were stimulated with a combination of anti-CD3 antibodies and FasL for a period of 6 hours, namely in the presence of 50 µM of the caspase-8 inhibitor IETD-fmk.
After 0, 2, 4, 6 and 22 hours, cells were taken from the different preparations and lysated. The cell lysates were examined with the Western blot technique with respect to their caspase-8 activity (procaspase-8, 55 kDa fraction, or proteolytically cleaved, active caspase-8, 26 kDa fraction, respectively).

[1] = tested on: IL-2 production of T-lymphocytes; assay: IL-2 concentration in supernatants of stimulated T-lymphocytes/PBL, CTLL bioassay; settings: FIG. 4; for suppression of IL-2 production: anti-CD3 antibody stimulation (3 μg/ml immobilized), inhibitors 50 µM, supernatants after 24 hours; for IL-2 activity in supernatants / T-cell proliferation as reflected by IL-2 concentration in supernatants: immobilized anti-CD3 antibody (3 μg/ml) with or without crosslinked FasL (50 ng/ml)
Method: FIG. 4 illustrates the correlation of IL-2 expression and the use of caspase inhibitors using a bar diagram. […] The findings shown in FIG. 4 are based on experiments in which 106 ^6 PBL/ml were cultivated with immobilized anti-CD3 antibody (3 μg/ml) and FasL ([…]) in the presence or absence of the caspase inhibitors referred to above (50 µM). The supernatants were removed after 24 hours and examined with the help of a CTLL bioassay for their IL-2 concentration.
For this purpose, T-lymphocytes (10^6/ml) were stimulated with immobilized antiCD3 antibody (3 μg/ml) with or without crosslinked FasL (50 ng/ml). The supernatants of these preparations with a caspase inhibitor or without a caspase inhibitor as control were removed after the stimulation period and their respective IL-2 concentration was measured using a CTTL bioassay. The IL-2 concentration in the supernatants reflects the T-cell proliferation.

[2] = tested on: human peripheral blood lymphocytes; assay: Proliferation of human PBL/T-cells stimulated with anti-CD3 antibodies, [3H] thymidine incorporation; settings: for inhibition of the stimulation (cell proliferation) brought about by the anti-CD3: human PBL, inhibitor 25 to 100 μM, four-day cultivation; for inhibition of the stimulation (cell proliferation) brought about by the anti-CD3 / effect on cell proliferation (cpm, [3H] thymidine incorporation): FIG. 1; for effect on cell proliferation (cpm, [3H] thymidine incorporation): human T-cells, 10 μg/ml soluble anti-CD3 antibodies, inhibitor concentrations above 25 μM
Method: For this purpose the T-cells were stimulated with 10 μg/ml soluble anti-CD3 antibodies in the presence of various caspase inhibitors. […] Plotted, the proliferation of the stimulated T-cells (cpm, measured by [^3H] thymidine incorporation) is found as a function of increasing concentrations of caspase inhibitors.
This means that the activity of caspase-8 is significant for the IL-2 production of T-cells. In the experiments on which FIG. 5 is based, PBL were activated with 10 μg/ml soluble anti-CD3 antibody in the presence or absence of zVAD-fink (50 μM) and in the presence of anti-CD3 antibody zVAD-fmk and 500 U/ml recombinant human IL-2, respectively.
For this purpose, the latter were prepared through Ficoll-Hypaque centrifugation. The cells (5×10^4 cells per well) were then cultivated on 96-well plates in the presence of different caspase inhibitors or, for control purposes, in their absence. The concentration of the caspase inhibitors was varied in a range of 25 to 100 μM. Finally, the cells were stimulated through anti-CD3 antibodies (TR66) or through a combined stimulation with anti-CD3 antibodies and soluble recombinant FasL with or without anti-FLAG sequence antibodies 1 μg/ml.
Cell proliferation was measured during the last 18 hours of the four-day cultivation period. The measuring variable for cell proliferation was the incorporation of [^3H] thymidine into the proliferating cells.

T1 sequence (Q14790 whole entry): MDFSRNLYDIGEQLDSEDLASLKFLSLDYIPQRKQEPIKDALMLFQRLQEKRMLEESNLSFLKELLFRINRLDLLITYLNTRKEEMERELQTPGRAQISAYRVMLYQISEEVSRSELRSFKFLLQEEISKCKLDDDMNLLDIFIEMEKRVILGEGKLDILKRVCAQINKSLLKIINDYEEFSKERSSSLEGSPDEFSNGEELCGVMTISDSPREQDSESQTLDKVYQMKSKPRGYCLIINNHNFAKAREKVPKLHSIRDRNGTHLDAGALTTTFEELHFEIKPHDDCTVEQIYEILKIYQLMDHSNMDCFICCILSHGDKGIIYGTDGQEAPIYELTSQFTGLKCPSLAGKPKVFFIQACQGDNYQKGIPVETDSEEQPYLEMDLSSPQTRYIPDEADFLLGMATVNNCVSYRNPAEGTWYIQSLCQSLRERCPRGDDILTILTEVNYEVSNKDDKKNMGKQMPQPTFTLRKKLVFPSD

proteolytic cleavage of caspase-8 during stimulation (caspase-8)	Substance	active 26 kDa caspase-8 fraction/band in Western blot (caspase-8)	suppression of IL-2 production [1]	IL-2 activity in supernatants [1]	T-cell proliferation as reflected by IL-2 concentration in supernatants [1]	inhibition of the stimulation (cell proliferation) brought about by the anti-CD3 [2]	effect on cell proliferation (cpm, [3H] thymidine incorporation) [2]	cell proliferation with inhibitor plus exogenous recombinant human IL-2 ([2]; PBL, 10 μg/ml soluble anti-CD3 antibody, zVAD-fmk 50 μM and 500 U/ml IL-2, FIG. 5)	number of cells as against the control ([2]; PBL, 10 μg/ml soluble anti-CD3 antibody, zVAD-fmk 50 μM, FIG. 5)
effectively blocked	IETD-fmk	cannot be detected; also recorded: does not lead to any 26 kDa band being detected	particularly effective	only weak	blocks	complete inhibition	clear inhibiting effect		
	zVAD-fmk		particularly effective	only weak	blocks	complete inhibition; also recorded: partial inhibition	clear inhibiting effect	increases dramatically	clear reduction
